The term IC50 denotes the concentration needed to halve the response being measured.

In data set [1] the test system is SREBP-2 transcriptional activity (SREBP2 cleavage) in HepG2_LSSprom cells. Put plainly: Luciferase reporter driven by a SREBP-2 specific promoter in HepG2_LSSprom cells. Type of data set: cell-based. The note with it: 24 h, read-out: SREBP2 Cleavage (IC50 μM) 24 h. In short, it runs like this: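 HepG2_LSSprom cells dosed at 0.625-10 μM in serum-free medium for 6 h (or 24 h), then luciferase luminescence read. Signal normalized to vehicle (100%); IC50 by four-parameter nonlinear fit; five independent experiments, triplicate wells.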
In general terms: In a reporter assay the amount or activity of a reporter protein is the signal.

The nature of data set [2]: Cytotoxicity assay (LDH release) in HepG2_LSSprom cells. Type of data set: cell-based. The note with it: human, HepG2 LSSprom cells, 24 h treatment, LDH release. In short, it runs like this: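 HepG2_LSSprom cells exposed to compound at 0.625–10 μM in serum-free medium for 6 h or 24 h. Medium LDH measured colorimetrically at 490 nm; release expressed as % of lysis control after vehicle subtraction, negatives set to 0; five independent experiments, triplicate wells, mean±SEM.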
A general note: LDH in the medium is a marker of cell lysis.

Where [3] appears, read: 24 h treatment, HepG2_LSSprom cells.

Like-named read-outs stand apart in the source and are kept apart here.

In the case of `CC(C)(C)c1cc(-c2csc(-c3ccc(C(=O)N4CC[C@H](O)C4)cc3Cl)c2)ccn1` [Compound 68a, (3S)-1-{4-[4-(2-tert-butylpyridin-4-yl)thiophen-2-yl]-3-chlorobenzoyl}pyrrolidin-3-ol], the IC50 in data set [1] (setting [3]) is 0.15 µM. Also, the IC50 at 24 h in data set [2] is more than 10 µM.

For the compound `CC(C)(C)c1cc(-c2csc(-c3ccc(C(=O)N4CC[C@@H](O)C4)cc3Cl)c2)ccn1` [Compound 68b, (3R)-1-{4-[4-(2-tert-butylpyridin-4-yl)thiophen-2-yl]-3-chlorobenzoyl}pyrrolidin-3-ol], the IC50 in data set [1] (setting [3]) stood at 0.06 µM. Besides, the half-maximal inhibitory concentration (IC50) at 24 h in data set [2] is more than 10 µM.

With `CC(C)(C)OC(=O)N[C@@H]1CCCN(C(=O)c2ccc(-c3cc(-c4ccnc(C(C)(C)C)c4)cs3)c(Cl)c2)C1` [Compound 69, tert-butyl N-[(3R)-1-{4-[4-(2-tert-butylpyridin-4-yl)thiophen-2-yl]-3-chlorobenzoyl}piperidin-3-yl]carbamate], in data set [1] (setting [3]), the IC50 is 0.015 µM. Also, the half-inhibitory concentration (IC50) at 24 h in data set [2] was more than 10 µM.

Regarding `CN(C(=O)OC(C)(C)C)C1CCCN(C(=O)c2ccc(-c3csc(-c4ccnc(C(C)(C)C)c4)c3)c(Cl)c2)C1` (stereo not shown) [Compound 70, tert-butyl N-(1-{4-[5-(2-tert-butylpyridin-4-yl)thiophen-3-yl]-3-chlorobenzoyl}piperidin-3-yl)-N-methylcarbamate], the concentration for half-maximal inhibition (IC50) in data set [1] (setting [3]) turned out to be 0.08 µM. Besides, the IC50 at 24 h in data set [2] was more than 10 µM.

Consider `CC(C)(C)OC(=O)N1CCCC(NC(=O)c2ccc(-c3csc(-c4ccnc(C(C)(C)C)c4)c3)c(Cl)c2)C1` (stereo not shown) [Compound 71, tert-butyl 3-{4-[5-(2-tert-butylpyridin-4-yl)thiophen-3-yl]-3-chlorobenzamido}piperidine-1-carboxylate], for which the IC50 in data set [1] (setting [3]) was determined as 0.34 µM. The half-maximal inhibitory concentration (IC50) at 24 h in data set [2] is more than 10 µM.

In the case of `CC(C)(C)c1cc(-c2cc(-c3ccc(C(=O)N4CCC(N)CC4)cc3Cl)cs2)ccn1` [Compound 72, 1-{4-[5-(2-tert-butylpyridin-4-yl)thiophen-3-yl]-3-chlorobenzoyl}piperidin-4-amine], the concentration for half-maximal inhibition (IC50) in data set [1] (setting [3]) was more than 10 µM. In addition, the IC50 at 24 h in data set [2] was more than 10 µM.

As to `CC(C)(C)c1cc(-c2csc(-c3ccc(C(=O)N(CCC(=O)O)c4ccc(F)cc4)cc3Cl)c2)ccn1` [Compound 73, 3-(N-[4-[4-(2-tert-butyl-4-pyridyl)-2-thienyl]-3-chloro-benzoyl]-4-fluoro-anilino)propanoic acid], the IC50 in data set [1] is more than 3 µM. In data set [2], the concentration for half-maximal inhibition (IC50) at 24 h is more than 10 µM.

As to `CC(C)(C)c1cc(-c2csc(-c3ccc(C(=O)N4CCC[C@@H](N)C4)cc3Cl)c2)ccn1` [Compound 74a, (R)-(3-aminopiperidin-1-yl)(4-(4-(2-(tert-butyl)pyridin-4-yl)thiophen-2-yl)-3-chlorophenyl)methanone], the IC50 in data set [1] (setting [3]) was 0.74 µM. The IC50 at 24 h in data set [2] was more than 10 µM.

As to `CC(C)(C)c1cc(-c2csc(-c3ccc(C(=O)N4CCC[C@H](N)C4)cc3Cl)c2)ccn1` [Compound 74b, (3S)-1-{4-[4-(2-tert-butylpyridin-4-yl)thiophen-2-yl]-3-chlorobenzoyl}piperidin-3-amine], the concentration for half-maximal inhibition (IC50) in data set [1] (setting [3]) turned out to be 0.51 µM. Further, in data set [2], the IC50 at 24 h was more than 10 µM.

For `CNC1CCCN(C(=O)c2ccc(-c3csc(-c4ccnc(C(C)(C)C)c4)c3)c(Cl)c2)C1` (stereo not shown) [Compound 75, 1-{4-[5-(2-tert-butylpyridin-4-yl)thiophen-3-yl]-3-chlorobenzoyl}-N-methylpiperidin-3-amine], the half-inhibitory concentration (IC50) in data set [1] (setting [3]) came to 3.2 µM. In addition, the IC50 at 24 h in data set [2] is more than 10 µM.

`CC(C)(C)C(=O)NC1CCN(C(=O)c2ccc(-c3csc(-c4ccnc(C(C)(C)C)c4)c3)c(Cl)c2)CC1` [Compound 76, N-(1-{4-[5-(2-tert-butylpyridin-4-yl)thiophen-3-yl]-3-chlorobenzoyl}piperidin-4-yl)-2,2-dimethylpropanamide]: the half-inhibitory concentration (IC50) in data set [1] (setting [3]) is 1.6 µM. Besides, in data set [2], the IC50 at 24 h was more than 10 µM.

`Cc1sc(-c2ccc(C(=O)N3CCNC(=O)C3)cc2Cl)cc1-c1ccnc(C(C)(C)C)c1` [Compound 77, 4-{4-[4-(2-tert-butylpyridin-4-yl)-5-methylthiophen-2-yl]-3-chlorobenzoyl}piperazin-2-one]: the 50% inhibitory concentration (IC50) in data set [1] (setting [3]) came to 2.3 µM. Besides, the IC50 at 24 h in data set [2] is more than 10 µM.

Take `CC(C)(C)OC(=O)N1CCC(NC(=O)c2ccc(-c3csc(-c4ccnc(C(C)(C)C)c4)c3)c(Cl)c2)CC1` [Compound 78, tert-butyl 4-{4-[5-(2-tert-butylpyridin-4-yl)thiophen-3-yl]-3-chlorobenzamido}piperidine-1-carboxylate]: the IC50 in data set [1] (setting [3]) was 0.2 µM. The half-inhibitory concentration (IC50) at 24 h in data set [2] is more than 10 µM.

`Cc1sc(-c2ccc(C(=O)N3CCC[C@@H](NC(=O)OC(C)(C)C)C3)cc2Cl)cc1-c1ccnc(C(C)(C)C)c1` [Compound 79a, tert-butyl N-[(3R)-1-{4-[4-(2-tert-butylpyridin-4-yl)-5-methylthiophen-2-yl]-3-chlorobenzoyl}piperidin-3-yl]carbamate]: the half-inhibitory concentration (IC50) in data set [1] (setting [3]) worked out at 0.29 µM. Also, in data set [2], the IC50 at 24 h is more than 10 µM.

For `Cc1sc(-c2ccc(C(=O)N3CCC[C@H](NC(=O)OC(C)(C)C)C3)cc2Cl)cc1-c1ccnc(C(C)(C)C)c1` [Compound 79b, tert-butyl N-[(3S)-1-{4-[4-(2-tert-butylpyridin-4-yl)-5-methylthiophen-2-yl]-3-chlorobenzoyl}piperidin-3-yl]carbamate], in data set [1] (setting [3]), the IC50 came out at 0.52 µM. In addition, the IC50 at 24 h in data set [2] is more than 10 µM.

For the compound `CC(C)(C)c1cc(-c2cc(-c3ccc(C(=O)N4CCCC(NCc5ccc(Cl)cc5)C4)cc3Cl)cs2)ccn1` (stereo not shown) [Compound 80, 1-{4-[5-(2-tert-butylpyridin-4-yl)thiophen-3-yl]-3-chlorobenzoyl}-N-[(4-chlorophenyl)methyl]piperidin-3-amine], the IC50 in data set [1] (setting [3]) turned out to be 0.06 µM. Besides, the IC50 at 24 h in data set [2] was more than 10 µM.

As for `CC(C)(C)c1cc(-c2cc(-c3ccc(C(=O)N4CCC[C@@H](NCc5ccc(Cl)cc5)C4)cc3Cl)cs2)ccn1` [Compound 80a, (R)-(4-(5-(2-(tert-butyl)pyridin-4-yl)thiophen-3-yl)-3-chlorophenyl)(3-((4-chlorobenzyl)amino)piperidin-1-yl)methanone], the half-maximal inhibitory concentration (IC50) in data set [1] (setting [3]) amounted to 0.095 µM. In addition, the IC50 at 24 h in data set [2] is more than 10 µM.

For the compound `CC(C)(C)c1cc(-c2cc(-c3ccc(C(=O)N4CCC[C@H](NCc5ccc(Cl)cc5)C4)cc3Cl)cs2)ccn1` [Compound 80b, (S)-(4-(5-(2-(tert-butyl)pyridin-4-yl)thiophen-3-yl)-3-chlorophenyl)(3-((4-chlorobenzyl)amino)piperidin-1-yl)methanone], the half-maximal inhibitory concentration (IC50) in data set [1] (setting [3]) worked out at 0.04 µM. Besides, the half-inhibitory concentration (IC50) at 24 h in data set [2] was more than 10 µM.

Regarding `CC(C)(C)c1cc(-c2cc(-c3ccc(C(=O)N4CCCC(NCc5cccc(Cl)c5)C4)cc3Cl)cs2)ccn1` (stereo not shown) [Compound 81, 1-{4-[5-(2-tert-butylpyridin-4-yl)thiophen-3-yl]-3-chlorobenzoyl}-N-[(3-chlorophenyl)methyl]piperidin-3-amine], in data set [1] (setting [3]), the half-maximal inhibitory concentration (IC50) was determined as 0.14 µM. For the same compound, the 50% inhibitory concentration (IC50) at 24 h in data set [2] is more than 10 µM.

Consider `CC(C)(C)c1cc(-c2cc(-c3ccc(C(=O)N4CCC(O)C4)cc3Cl)cs2)ccn1` (stereo not shown) [Compound 82, [4-[5-(2-tert-butyl-4-pyridyl)-3-thienyl]-3-chloro-phenyl]-(3-hydroxypyrrolidin-1-yl)methanone], for which the IC50 in data set [1] (setting [3]) is 0.5 µM. Besides, the half-maximal inhibitory concentration (IC50) at 24 h in data set [2] is more than 10 µM.

For the origin of these results see patent publication US10189826B2, “Heterocyclic compounds and methods of use” (Medivation Technologies LLC, priority 2015, dated 2019).
